Experimental data: article PMC7179434, “1,2,4-Triazolo[1,5-a]pyrimidines as a Novel Class of Inhibitors of the HIV-1 Reverse Transcriptase-Associated Ribonuclease H Activity” (Molecules, 2020)
Entries after “also recorded” stand apart in the source; their conditions may differ. Read-outs that look alike come from different tables or passages of the source.

What was measured:
HIV-1 RNase H = target: HIV-1 RNase H; parameters: method as in ref 17-25, 27-29 (per compound as in Figure 1 legend); settings: known allosteric RNHIs, 27-29 (per compound as in Figure 1 legend), cited from earlier work
HIV-1 RDDP = test system: HIV-1 RDDP; parameters: method as in ref 17-21, 27-29 (per compound as in Figure 1 legend); settings: known allosteric RNHIs; 27-29 (per compound as in Figure 1 legend); cited from earlier work
HIV-1 replication = settings: cited from earlier work
cell growth = test system: cell growth; parameters: method as in PMID 17184135, PMID 23631411; settings: concentration that inhibits cell growth by 50%; read-out: CC50 (cytotoxicity); cited from earlier work
[1] = target: HIV-1 RT-associated RNase H (Human immunodeficiency virus type 1 group M subtype B, UniProt P03366); assay: biochemical; assay type: biochemical
HIV-2 RNase H = target: HIV-2 RNase H; parameters: method as in PMID 18831589; settings: cited from earlier work
HIV-1 RT-associated RDDP = HIV-1 RT-associated RDDP (Human immunodeficiency virus type 1 group M subtype B, UniProt P03366); assay: biochemical; assay type: biochemical
HIV-1 (IIIB strain) = assay type: cell-based; settings: acutely infected MT-4 cells
HIV-2 (ROD strain) = assay: Anti-HIV-2 activity in acutely infected MT-4 cells (MTT); assay type: cell-based
in vitro = settings: human
[2] = 28 (per compound as in Figure 1 legend)

COc1ccc2ccccc2c1/C=N/NC(=O)c1ccc(O)c(O)c1 [Compound 1]
IC50 (HIV-1 RNase H): 500 nM
IC50 (HIV-1 RDDP): > 25000 nM
EC50 (HIV-1 replication; [2]): 5500 nM
CC50 (cell growth): > 100000 nM

NC(=O)c1c(N)sc2c1CCCCC2 [Compound 5]
IC50 [1]: 4000 ± 500 nM
IC50 (HIV-1 RNase H): 2000 to 2500 nM
IC50 (HIV-1 RNase H; listed as 5 (NSC727447)): 2000 nM
IC50 (HIV-2 RNase H): 2000 to 2500 nM
IC50 (HIV-2 RNase H; listed as 5 (NSC727447)): 2500 nM
EC50 (HIV-1 replication) (HIV-1 replication; [2]): not active
selectivity index (SI) (HIV-1 replication; anti-HIV-1 activity vs cytotoxicity): 4

O=c1[nH]c(-c2ccc(O)c(O)c2)nc2sc3c(c12)CCCCC3 [Compound 7]
IC50 (HIV-1 RNase H): 290 nM
EC50 (HIV-1 replication; [2]): 1600 nM
CC50 (cell growth): 6800 nM

Cc1cc(-c2ccccc2)n2nc(NC(=O)c3ccc(O)c(O)c3)nc2n1 [Compound 12g, 3,4-Dihydroxy-N-(5-methyl-7-phenyl-[1,2,4]triazolo[1,5-a]pyrimidin-2-yl)benzamide]
IC50 [1]: 800 ± 200 nM
IC50 (HIV-1 RT-associated RDDP): > 100000 nM
anti-HIV-1 (IIIB strain) activity (HIV-1 (IIIB strain)): did not result in anti-HIV-1 activity in cellular context; also recorded: none of the compounds having RNase H inhibition showed anti-HIV activity at concentrations lower than those cytotoxic
anti-HIV-2 (ROD strain) activity (HIV-2 (ROD strain)): none of the compounds having RNase H inhibition showed anti-HIV activity at concentrations lower than those cytotoxic
melting point: 285 to 288 °C
CC50 at 5 days (in vitro): 112000 nM
